This note sets out measurements from ChEMBL document CHEMBL5604063, “ASAP - DENV-2 NS2B-NS3 protease fluorescence dose response” (2024).

The term IC50 denotes the concentration that inhibits the measured activity by half. A high value points to a need for much substance.

The target in experiment [1] is T1, Genome polyprotein (dengue virus type 2, UniProt P29990). Format: functional, Thailand/16681/1984.
Experiment [2] addresses T1, Genome polyprotein. Type of experiment: functional, Thailand/16681/1984. The source holds these as a separate data set.

Several values for one entry are separate records, joined by “and”; a condition that tells them apart may be missing. Equal values may be shown once.

T1 sequence (P29990 1346-1475 limits assumed): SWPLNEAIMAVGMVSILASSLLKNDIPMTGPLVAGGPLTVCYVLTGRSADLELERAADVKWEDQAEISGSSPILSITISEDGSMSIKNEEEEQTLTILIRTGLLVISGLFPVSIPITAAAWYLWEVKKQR
T1 sequence (P29990 1476-2093 limits assumed): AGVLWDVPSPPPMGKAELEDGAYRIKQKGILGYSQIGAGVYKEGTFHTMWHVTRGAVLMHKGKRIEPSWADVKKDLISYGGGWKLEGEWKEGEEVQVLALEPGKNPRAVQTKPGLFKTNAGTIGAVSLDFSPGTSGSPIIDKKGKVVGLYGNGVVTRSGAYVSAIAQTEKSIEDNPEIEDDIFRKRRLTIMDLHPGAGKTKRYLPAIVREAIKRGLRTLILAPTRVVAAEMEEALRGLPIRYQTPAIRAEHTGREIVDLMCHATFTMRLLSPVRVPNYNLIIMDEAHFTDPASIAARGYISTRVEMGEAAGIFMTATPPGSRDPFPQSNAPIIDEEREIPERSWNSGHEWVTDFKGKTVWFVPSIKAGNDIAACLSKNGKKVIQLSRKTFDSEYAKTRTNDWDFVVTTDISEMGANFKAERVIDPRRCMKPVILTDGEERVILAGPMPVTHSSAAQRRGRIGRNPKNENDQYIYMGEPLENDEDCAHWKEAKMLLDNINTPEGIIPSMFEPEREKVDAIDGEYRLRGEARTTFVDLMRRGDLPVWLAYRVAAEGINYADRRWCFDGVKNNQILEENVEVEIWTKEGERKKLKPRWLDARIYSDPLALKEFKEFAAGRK

For `O=C(Nc1cc(Cl)cc(C(=O)NCCc2nnn[nH]2)c1)OCc1ccccc1`, the IC50 in experiment [1] was above 99.5 µM; in experiment [2], above 100 µM.

As to `Cc1c(C(=O)Nc2cccc(-n3nn[nH]c3=O)c2)cc(C2CC2)n1C`, the IC50 in experiment [1] is above 99.5 µM; in experiment [2], above 100 µM.

With `N#Cc1ccc(CN)cc1NC(=O)c1cc(Cl)cc(NC(=O)OCc2ccccc2)c1`, the IC50 in experiment [1] was above 99.5 µM; in experiment [2], above 100 µM.

With `CC[C@H](Cc1nnn[nH]1)c1ccc(NC(=O)c2cc(Cl)cc(SC)c2)cc1`, the IC50 in experiment [1] came out at 67.2 µM; in experiment [2] it was 40.6 µM.

Consider `O=C(Nc1cccc(-c2nnn[nH]2)c1)c1cc(Cl)cc2[nH]ncc12`, for which the IC50 in experiment [1] was above 99.5 µM; in experiment [2], above 100 µM.

As to `CCn1c(=O)c(N2CC[C@H](CO)C2)nc2ccc(C(=O)NS(C)(=O)=O)cc21`, the IC50 in experiment [1] was above 99.5 µM; in experiment [2], above 100 µM.

As for `N#Cc1cc(Cl)cc(S(=O)(=O)Nc2cccc(-c3nnn[nH]3)c2)c1`, the IC50 was above 99.5 µM in experiment [1] and above 100 µM in experiment [2].

For `Cc1ccc(NC(=O)c2cc(C3CC3)n(C)c2C)cc1CN`, the IC50 in experiment [1] was above 99.5 µM; in experiment [2], above 100 µM.

As to `CC[C@H](Cc1nnn[nH]1)c1ccc(NC(=O)c2cc(Cl)cc3[nH]ncc23)cc1`, the IC50 is above 99.5 µM in experiment [1] and above 100 µM in experiment [2].

As to `CCc1nc(C(=O)Nc2cccc(CN)c2)nn1-c1c(Cl)cccc1Cl`, the IC50 in experiment [1] was above 99.5 µM; in experiment [2], above 100 µM.

Consider `CC(C)c1nc2c(C(=O)Nc3cccc(-c4nnn[nH]4)c3)cccc2[nH]1`, for which the results for the IC50 in experiment [1] and in experiment [2] were above 99.5 µM and above 100 µM, respectively.

With `N#Cc1cc(Cl)cc(C(=O)Nc2cccc(-n3nn[nH]c3=O)c2)c1`, the IC50 in experiment [1] was above 99.5 µM; in experiment [2], above 100 µM.

Consider `Cn1nnnc1-c1cccc(NC(=O)c2cc(Cl)cc(NC(=O)OCc3ccccc3)c2)c1`, for which the IC50 was above 99.5 µM in experiment [1] and above 100 µM in experiment [2].

For `O=C1Cc2cc(NC(=O)c3cc(Cl)cc(NC(=O)OCc4ccccc4)c3)ccc2N1`, the figures for the IC50 in experiment [1] and in experiment [2] were above 99.5 µM and above 100 µM, respectively.

In the case of `Nc1nc2ccc(NC(=O)c3cc(Cl)cc(NC(=O)OCc4ccccc4)c3)cc2[nH]1`, the IC50 was above 99.5 µM in experiment [1] and above 100 µM in experiment [2].

Turning to `CCNC(=O)Nc1cc(Cl)cc(C(=O)Nc2ccc([C@H](CC)Cc3nnn[nH]3)cc2)c1`, the IC50 in experiment [1] is above 99.5 µM; in experiment [2], above 100 µM.

Consider `CNC(=O)[C@H](Nc1cccc(N)n1)c1cc(Cl)cc(CNC(=O)OC(C)(C)C)c1`, for which the IC50 was above 99.5 µM in experiment [1] and above 100 µM in experiment [2].

Regarding `O=C(Nc1cc(Cl)cc(C(=O)Nc2cc(Br)cc(-c3nnn[nH]3)c2)c1)OCc1ccccc1`, the IC50 in experiment [1] is 5.85 µM; in experiment [2] it was 4.76 µM and 6.21 µM.

On to `Nc1cccc(NC(=O)c2cc(Cl)cc(NC(=O)OCc3ccccc3)c2)n1`, for which the IC50 was above 99.5 µM in experiment [1] and above 100 µM in experiment [2].

In the case of `COC(=O)c1cc(NC(=O)c2cc(Cl)cc(NC(=O)OCc3ccccc3)c2)cc(-c2nnn[nH]2)c1`, the IC50 was 6.17 µM in experiment [1]; 5.42 µM and 6.24 µM in experiment [2].

Regarding `N#Cc1cc(CN)cc(NC(=O)c2cc(Cl)cc(NC(=O)OCc3ccccc3)c2)c1`, the figures for the IC50 in experiment [1] and in experiment [2] were above 99.5 µM and above 100 µM, respectively.

For the molecule `O=C(Nc1cc(Cl)cc(C(=O)NCCCc2nnn[nH]2)c1)OCc1ccccc1`, the IC50 was above 99.5 µM in experiment [1] and above 100 µM in experiment [2].

For `C=CC[C@H](Nc1cccc(CN)n1)c1cc(Cl)cc(NC(=O)OCc2ccccc2)c1`, the results for the IC50 in experiment [1] and in experiment [2] were above 99.5 µM and above 100 µM, respectively.

As for `CC(C)[C@H](NC(=O)c1cc(Cl)cc(NC(=O)OCc2ccccc2)c1)c1nn[nH]n1`, the IC50 in experiment [1] was above 99.5 µM; in experiment [2] it was 61.3 µM and 41.1 µM and 39.5 µM and 56.3 µM and 58.4 µM.

Turning to `CC[C@H](Cc1nnn[nH]1)c1ccc(NC(=O)c2cc(Cl)cc(C#N)c2)cc1`, the IC50 in experiment [1] was above 99.5 µM; in experiment [2] it was above 100 µM.

Take `Cc1c(C(=O)Nc2cccc([C@@H](C)N)c2)cc(C2CC2)n1C`: the IC50 in experiment [1] is above 99.5 µM; in experiment [2], above 100 µM.

For the molecule `N#Cc1cc(Cl)cc(C(=O)Nc2cccc(-c3nnn[nH]3)c2)c1`, the IC50 in experiment [1] is above 99.5 µM; in experiment [2], above 100 µM.

Regarding `O=C(Nc1cccc(-n2nn[nH]c2=O)c1)c1cc(Cl)cc2c1CCC2`, the IC50 in experiment [1] is above 99.5 µM; in experiment [2], above 100 µM.

Take `O=C(Nc1cc(Cl)cc(C(=O)Nc2ccc([C@H]3CCCNC3)cc2)c1)OCc1ccccc1`: the values for the IC50 in experiment [1] and in experiment [2] were 68.4 µM and above 100 µM, respectively.

On to `O=C(Nc1cccc(-c2nnn[nH]2)c1)c1cc(Cl)cc(C2CC2)c1`, for which the concentration for half-maximal inhibition (IC50) is 82.9 µM in experiment [1]; 39.7 µM and 43.5 µM in experiment [2].

For `CCNC(=O)Nc1cc(Cl)cc(C(=O)Nc2cccc(-c3nn[nH]n3)c2)c1`, the IC50 was above 99.5 µM in experiment [1] and above 100 µM in experiment [2].

In the case of `Cc1c(C(=O)Nc2cc(CCCN)ccn2)cc(C2CC2)n1C`, the 50% inhibitory concentration (IC50) is 74.6 µM and 35.9 µM in experiment [1]; above 100 µM in experiment [2].

As to `O=C(Nc1cc(Cl)cc(C(=O)N[C@H](c2nn[nH]n2)C2CNC2)c1)OCc1ccccc1`, the IC50 in experiment [1] is above 99.5 µM; in experiment [2], above 100 µM.

In the case of `Cn1nc(C(=O)Nc2cccc(CN)c2)c2c1CCS(=O)(=O)C2`, the values for the IC50 in experiment [1] and in experiment [2] were above 99.5 µM and above 100 µM, respectively.

Turning to `O=S(=O)(Nc1cccc(-c2nnn[nH]2)c1)c1cc(F)cc(Cl)c1`, the IC50 is above 99.5 µM in experiment [1] and above 100 µM in experiment [2].

As to `O=C(Nc1cccc(-n2nn[nH]c2=O)c1)c1cc(Cl)cc(N2CCCC2=O)c1`, the IC50 is above 99.5 µM in experiment [1] and above 100 µM in experiment [2].

With `CNC(=O)[C@H](Nc1cc(Cl)cc(NC(=O)OCc2ccccc2)c1)c1cccc(CN)c1`, the IC50 was above 99.5 µM in experiment [1] and above 100 µM in experiment [2].

In the case of `CCOC(=O)c1[nH]c(C)c(C(=O)Nc2cccc(CN)c2)c1CC`, the IC50 in experiment [1] is above 99.5 µM; in experiment [2], above 100 µM.

Regarding `CC[C@H](Cc1nnn[nH]1)c1ccc(NC(=O)c2cc(Cl)cc3c2CCC3)cc1`, the concentration for half-maximal inhibition (IC50) in experiment [1] is 83.6 µM; in experiment [2] it was 58.8 µM.

Take `Cc1c(C(=O)Nc2ccc3c(c2)CNCCO3)cc(C2CC2)n1C`: the results for the IC50 in experiment [1] and in experiment [2] were above 99.5 µM and above 100 µM, respectively.

With `CC[C@H](Cc1nnn[nH]1)c1ccc(NC(=O)c2cc(Cl)cc(C3CC3)c2)cc1`, the IC50 in experiment [1] is 55.2 µM; in experiment [2], 28.7 µM and 35.1 µM.

As to `O=C(N[C@H]1[C@H]2CCCCC[C@H]2[C@H]1C(=O)Nc1cccc(-n2nn[nH]c2=O)c1)OCc1ccccc1`, the IC50 in experiment [1] was 27.1 µM; in experiment [2], 37.9 µM and 54.6 µM.

For `O=C(Nc1cc(Cl)cc(C(=O)Nc2ccc3c(c2)CNC3=O)c1)OCc1ccccc1`, the figures for the IC50 in experiment [1] and in experiment [2] were above 99.5 µM and above 100 µM, respectively.

For the molecule `NCc1ccc2c(c1)[C@H](N1CCCC1=O)C[C@H](c1cc(Cl)cc(NC(=O)OCc3ccccc3)c1)N2`, the IC50 in experiment [1] was above 99.5 µM; in experiment [2], 75.5 µM.

For the molecule `Cc1c(C(=O)Nc2n[nH]c3c2CNC3)cc(C2CC2)n1C`, the IC50 in experiment [1] was above 99.5 µM; in experiment [2], above 100 µM.

For the molecule `Cc1c(C(=O)Nc2ccc(CCN)cc2)cc(C2CC2)n1C`, the IC50 in experiment [1] is above 99.5 µM; in experiment [2] it was above 100 µM.

Take `CC[C@H](Cc1nnn[nH]1)c1ccc(NC(=O)c2cc(Cl)cc(Cl)c2OC)cc1`: the IC50 in experiment [1] is above 99.5 µM; in experiment [2], above 100 µM.

With `CCNC(=O)Nc1cc(Cl)cc(C(=O)O)c1`, the figures for the IC50 in experiment [1] and in experiment [2] were above 99.5 µM and above 100 µM, respectively.
